As usually defined, the Kd is the constant that tells how readily two partners part at equilibrium. As usually defined, the EC50 is the concentration needed to bring the measured effect to its halfway point.

Data set [1] has as its target FMAL-actin (F-actin from rabbit skeletal muscle labeled at Cys-374 with fluorescein-5-maleimide) (rabbit) (UniProt P68135). As to the kind of experiment: FRET or BRET; TR-FRET; 1 μM F-actin labeled (to 10%) with FMAL (donor) with 0-20 μM TMR-C0-C2^Cys225 (acceptor) ±PKA; M-ABB. In general terms: BRET reads energy transfer from a luciferase to a nearby fluorophore.
Data set [2] shares this target. Described as above. The source holds these as a separate data set.
The target of the next data set is T1, ErIA-actin + C0-C2 (Homo sapiens, UniProt Q14896).
T1 construct: N-terminal domains C0 through C2 (C0-C2), containing the proline/alanine-rich linker (P/A) and the M-domain (M); 6x His (N, cleaved yes); TEV protease cleavage site (N, cleaved yes); made in house; host or cells: E. coli BL21DE3 (C0-C2); actin purified from rabbit skeletal muscle
The data set can be described thus: Transient phosphorescence anisotropy (TPA) of ErIA-actin with C0-C2. It is filed as biochemical. As to conditions: 1 μM ErIA-actin, 2 μM C0-C2; actin alone 0.033 ± 0.001. How it is done: The same mixtures were tested in the presence of 2 μM C0-C2. These were added together with glucose catalase/oxidase to prevent photobleaching, and TPA was performed at 25 °C to determine anisotropy values ([7]).

Data set [3] has as its target T2, AF568-actin:C0-C2 (actin-cMyBP-C binding) (Homo sapiens, UniProt Q14896). As to the kind of experiment: TR-F high-throughput screen of LOPAC library, AF568-actin with C0-C2. How it is done:
(§1) The 1280 LOPAC compounds were received in 96-well plates (LOPAC^1280, Sigma-Aldrich) and were reformatted into 1536-well flat, black-bottom polypropylene plates (Greiner Bio-One). In total, 50 nl of compounds was dispensed using an automated Echo 550 acoustic liquid dispenser (Labcyte). LOPAC compounds were formatted into plates, with the first two and last two columns loaded with 50 nl of DMSO and used for compound-free controls. The final concentration of the compounds was 10 μM. These assay plates were then heat-sealed using a PlateLoc Thermal Microplate Sealer (Agilent Technologies) and stored at –20 °C. Before screening, compound plates were equilibrated to room temperature (25 °C). In total, 1 μM AF568-labeled actin without or with 2 μM C0-C2 in M-ABB was dispensed by a Multidrop Combi Reagent Dispenser (Thermo Fisher Scientific) into the 1536-well assay plates containing the compounds. Plates were incubated at room temperature for 20 min before recording the data with the FLTPR. Plates were rescanned after 120 min incubation.
(§2) Two full screens were done using different batches of AF568-labeled actin, C0-C2, and test compounds.
(§3) Following data acquisition, TR-F waveforms observed for each well were convolved with the IRF to determine the lifetime (τ) (Equation 1) by fitting to a single-exponential decay ([15], [35]).
(§4) A compound was considered a Hit if it was in the top 25 compounds in each of two independent screenings of the LOPAC. Top compounds were those that increased the lifetime of AF568-actin when C0-C2 was present (indicating inhibition of C0-C2 binding). Compounds that altered AF568-actin lifetime when C0-C2 was not present by >4 SD relative to that of the control samples (those exposed to 0.1% DMSO) were first removed from the analysis. […] Any change in lifetime induced by a compound on AF568-actin alone was then subtracted from the effect of the compound on AF568-actin when C0-C2 was present. The resulting C0-C2-dependent change for all compounds was ranked.

For the next data set, the target named is T3, AF568-actin (Oryctolagus cuniculus, UniProt P68135).
T3 construct: Actin was prepared from rabbit skeletal muscle by extracting acetone powder; from tissue; host or cells: rabbit skeletal muscle (acetone powder)
As to the kind of experiment: TR-F high-throughput screen, AF568-actin alone (no C0-C2). Type of data set: binding, rabbit. As to conditions: 10 μM compound; 1 μM AF568-actin alone. How it is done: as §1, §2, §3, §4

For data set [4], the target named is T2, AF568-actin:C0-C2 (actin-cMyBP-C binding). The data set can be described thus: TR-F concentration-response assay, AF568-actin with C0-C2. The conditions noted are these: 2 μM C0-C2.
Experimental: (§5) Using the same conditions as in the primary screen, we determined the concentration dependence of each of the three Hit compounds on the AF568-actin lifetime effects. […] In a separate dose–response assay utilizing 3 μM C0-C2, we compared the effects of the compounds on nonphosphorylated and phosphorylated C0-C2. […] In the second dose-response assay, 3 μM instead of 2 μM C0-C2 was used in the second dose–response assay so that effects of compounds on phosphorylated C0-C2 could be readily detected, as phosphorylation of C0-C2 itself (in the absence of compounds) reduces binding to actin.
The Hit compounds were dissolved in DMSO to make a 10 mM stock solution, which was serially diluted in 96-well mother plates. Hits were screened at eight concentrations (0.5–100 μM). Compounds (1 μl) were transferred from the mother plates into 384-well plates using a Mosquito HV liquid handler (TTP Labtech Ltd). The same procedure of dispensing as for the pilot screening was applied in the TR-F concentration–response assays. Concentration dependence of the TR-F change was fitted using the Hill equation ([38]):(3) τ=τo+τmaxC^α/EC50α+C^α where τ and τ0 are TR-F in the presence and in the absence of the compound, τmax is the maximum effect, C is the compound concentration, EC50 is the compound concentration for which 50% of maximum effect is obtained, and α is the Hill coefficient of sigmoidicity.
The target in data set [5] is C0-C2 portion of human cMyBP-C (Homo sapiens, UniProt Q14896). The data set can be described thus: Isothermal titration calorimetry (ITC) of compounds binding to C0-C2.
The target of the next data set is T4, F-actin (Oryctolagus cuniculus, UniProt P68135).
T4 construct: Actin was prepared from rabbit skeletal muscle by extracting acetone powder; from tissue; host or cells: rabbit skeletal muscle (acetone powder)
The data set can be described thus: ITC of compounds with actin alone. The conditions noted are these: actin alone. Type of data set: binding, rabbit. How it is done: The titration of compounds binding to cMyBP-C was performed on an Affinity ITC (TA Instruments). Each compound in M-ABB buffer (2000–3000 μM) was titrated into C0-C2 in M-ABB buffer (100 μM, 350 μl). For the titration, a preliminary 2.5-μl injection (ignored in data analysis) was followed by 19–39 subsequent 2.5-μl injections with 4 min waits between each injection. The reference cell was filled with distilled water. To account for heat changes of dilution and mechanical mixing, binding data were corrected by subtraction of the final plateau injection values (when binding is complete) prior to curve fitting. Corrected binding data was processed using the NanoAnalyze analysis software (TA Instruments).
Figure S2. ITC of Suramin binding to actin alone. (A) Titration of 100 µM F-actin (in 350 µl) with 40 2.5
µl injections of 3,000 µM Suramin. (B) Fitted ITC binding curve for Suramin binding. Binding to actin was
for Suramin with actin alone (Kd ~200 µM).
(1 picture or pasted object on this page, not shown here)

The target in data set [6] is T5, FMAL-actin:TMR-C0-C2^Cys225 (Homo sapiens, UniProt Q14896, C239L/C249S/C426T/C436V/C443S/H225C).
T5 construct: N-terminal domains C0 through C2 (C0-C2), containing the proline/alanine-rich linker (P/A) and the M-domain (M); 6x His (N, cleaved yes); TEV protease cleavage site (N, cleaved yes); made in house; host or cells: E. coli BL21DE3 (C0-C2^Cys225); actin purified from rabbit skeletal muscle
As to the kind of experiment: FMAL-actin-TMR-C0-C2 TR-FRET binding assay. The conditions noted are these: 50 μM compound; 1 μM FMAL-actin, 2 μM TMR-C0-C2; both nonphosphorylated and phosphorylated C0-C2. Here is the method:
In total, 1 μM F-Actin labeled (to 10%) on Cys-374 with FMAL (donor fluor) was incubated with increasing concentrations (0–20 μM) of C0-C2^Cys225 unlabeled (for donor only (D) data acquisition) or labeled to 95% with TMR (acceptor fluor) (for donor–acceptor (DA) data). Lifetimes of FMAL-actin were determined for D and DA at each concentration of C0-C2^Cys225. TR-FRET efficiency (1 – (τDA/τD)) was determined for each C0-C2^Cys225 concentration. The binding curve was generated from data from two separate preparations of actin and C0-C2^Cys225. Testing of compound effects by TR-FRET was similarly done at 1 μM FMAL-actin with unlabeled C0-C2^Cys225 (D) and TMR-C0-C2^Cys225 (DA), both at 2 μM.
(In general: TR-FRET usually uses a lanthanide donor and a delayed reading to cut background.)

The target in a further data set is T6, C0-C2 (Homo sapiens, UniProt Q14896).
T6 construct: N-terminal domains C0 through C2 (C0-C2), containing the proline/alanine-rich linker (P/A) and the M-domain (M); 6x His (N, cleaved yes); TEV protease cleavage site (N, cleaved yes); made in house; host or cells: E. coli BL21DE3
The data set can be described thus: Visible light scattering (C0-C2 aggregation). As to conditions: 2 or 10 μM C0-C2 mixed with compound for 20 min. Here is the method:
All three drugs were tested for causing C0-C2 to aggregate by measuring absorbance in the visible range beyond the absorption of protein or the drugs themselves. Observed absorbance in these wavelengths is actually loss of transmitted light due to light scattering from aggregated C0-C2. 2 or 10 μM of C0-C2 was mixed with 20 μM of suramin, NF023, or ATA for 20 min and wavelengths 250–600 nm were scanned using a Beckman Coulter DU730 UV/Vis Spectrophotometer to determine optical density. The same was done with 2 or 10 μM of C0-C2 and 20 μM of suramin, NF023, or ATA alone.

Data set [7] has as its target AF568-actin:phosphorylated (by PKA) C0-C2 (Homo sapiens, UniProt Q14896). The data set can be described thus: TR-F concentration-response assay, AF568-actin with PKA-phosphorylated C0-C2.
Experimental: as §5
C0-C2 was treated with 7.5 ng PKA/μg C0-C2 at 30 °C for 30 min.
The Hit compounds were dissolved in DMSO to make a 10 mM stock solution, which was serially diluted in 96-well mother plates. Hits were screened at eight concentrations (0.5–100 μM). Compounds (1 μl) were transferred from the mother plates into 384-well plates using a Mosquito HV liquid handler (TTP Labtech Ltd). The same procedure of dispensing as for the pilot screening was applied in the TR-F concentration–response assays.
The target of a further data set is T7, ErIA-actin (Oryctolagus cuniculus, UniProt P68135).
T7 construct: Actin was prepared from rabbit skeletal muscle by extracting acetone powder; from tissue; host or cells: rabbit skeletal muscle (acetone powder)
As to the kind of experiment: Transient phosphorescence anisotropy (TPA) of ErIA-actin alone. It is filed as biochemical, rabbit. As to conditions: concentration not given. Here is the method:
[…] These were added together with glucose catalase/oxidase to prevent photobleaching, and TPA was performed at 25 °C to determine anisotropy values ([7]).

[8] abbreviates: 10 μM compound, 1 μM AF568-actin, 2 μM C0-C2.
Setting [9] is: Δτ actin+C0-C2 after subtracting effect on actin alone.
[10] abbreviates: single titration shown in Fig. 4.

“Also recorded” adds a separate entry of the source. Where two headings read alike, the source gives them in different places.

T2 sequence (Q14896 1-451 limits assumed): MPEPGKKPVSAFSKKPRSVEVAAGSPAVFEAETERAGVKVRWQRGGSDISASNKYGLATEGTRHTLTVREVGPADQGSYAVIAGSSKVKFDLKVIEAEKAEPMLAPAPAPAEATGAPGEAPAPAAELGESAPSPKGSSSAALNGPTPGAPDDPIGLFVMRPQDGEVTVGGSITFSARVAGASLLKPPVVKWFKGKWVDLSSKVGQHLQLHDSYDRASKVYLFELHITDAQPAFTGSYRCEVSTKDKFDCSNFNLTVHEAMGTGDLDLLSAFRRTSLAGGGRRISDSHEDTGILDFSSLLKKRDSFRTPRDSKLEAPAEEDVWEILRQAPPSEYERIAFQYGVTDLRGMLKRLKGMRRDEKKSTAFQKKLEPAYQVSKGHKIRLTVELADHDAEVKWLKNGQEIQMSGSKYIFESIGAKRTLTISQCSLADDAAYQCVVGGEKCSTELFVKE
Chain of C0-C2 portion of human cMyBP-C (Q14896 1-451 limits assumed): as above
Chain of AF568-actin:phosphorylated (by PKA) C0-C2 (Q14896 1-451 limits assumed): as above
T6 sequence (Q14896 1-451 limits assumed): as above
T1 sequence (Q14896 1-451 limits assumed): as above
T5 sequence (Q14896 1-451 H225C/C239L/C249S/C426T/C436V/C443S limits assumed): as the sequence (Q14896 1-451 limits assumed) above, with H225C, C239L, C249S, C426T, C436V, C443S counted along it

On to “TMR-C0-C2^Cys225 phosphorylated by PKA (from UniProt Q14896 1-1274) (domain or fragment)”, for which the results for the Kd in [1] and in data set [2] were 3 µM and 8 µM, respectively.

As for “C0-C2: recombinant N-terminal fragment (domains C0 through C2) of human cMyBP-C”, the “actin's final anisotropy in the presence of C0-C2” value with ErIA-actin + C0-C2 was 0.071 ± 0.003.

“TMR-C0-C2^Cys225 (single-cysteine C0-C2 of human cMyBP-C labeled with tetramethylrhodamine at Cys225) (from UniProt Q14896 1-1274) (domain or fragment)”: the Kd in data set [1] was 1 µM. In data set [2], this compound displayed a Kd of 2.6 µM and a donor lifetime τDA of FMAL-actin with 20 μM TMR-C0-C2^Cys225 (τD = 4.2 ns) of 2 ns.

For the compound `O=C(Nc1cccc(C(=O)Nc2ccc(S(=O)(=O)O)c3cc(S(=O)(=O)O)cc(S(=O)(=O)O)c23)c1)Nc1cccc(C(=O)Nc2ccc(S(=O)(=O)O)c3cc(S(=O)(=O)O)cc(S(=O)(=O)O)c23)c1` [NF023], in [3] (setting [8]), the “Actin-MyBP-C Drug Δτ, Screen 1” value is recorded as 0.058 ns; the “Actin-MyBP-C Drug Δτ, Screen 2” value amounted to 0.07 ns; the “Actin-MyBP-C Drug Δτ, Sub-optimal Screen 3” value is listed as 0.06 ns; the “Actin-MyBP-C Drug Δτ, Sub-optimal Screen 4” value is 0.04 ns. The “average change in lifetime, SD above the median of all compounds not excluded” value in data set [3] (10 μM compound, 1 μM AF568-actin, 2 μM C0-C2, average of screens) came to 3.8 SD. Also, in data set [3] (setting [9]), the “Difference, Screen 1” value is given as 0.09 ns; the “Difference, Screen 2” value is recorded as 0.06 ns; the “Difference, Sub-optimal Screen 3” value is 0.08 ns; the “Difference, Sub-optimal Screen 4” value is reported as 0.03 ns. Moreover, on AF568-actin, the “Actin Drug Δτ, Screen 1” value is recorded as -0.03 ns; the “Actin Drug Δτ, Screen 2” value is given as 0.01 ns; the “Actin Drug Δτ, Sub-optimal Screen 3” value is recorded as -0.02 ns; the “Actin Drug Δτ, Sub-optimal Screen 4” value came out at 0.01 ns. The EC50 in data set [4] (1 μM AF568-actin, mean ± SE) is 16.3 ± 1.2 µM. In data set [4] (n not defined in table), this compound showed a TR-F n of 3.2. Moreover, the “ITC ΔS” value in [5] (Table 1 average, no unit in table (Fig. 4: J/mol•K)) is on record as −19.2. In addition, the “ITC ΔH” value in [5] (Table 1 average, no unit in table (Fig. 4: kJ/mol)) is listed as −30.2. Besides, in data set [5] (Table 1 average, unit not given), the “ITC ΔG” value was −24.6. Also, the “ITC n (stoichiometry, compound per C0-C2)” value in [5] (average of two preparations) was 2.1. Also, the dissociation constant Kd in [5] (compound binding to C0-C2, mean ± SE, two protein preparations, read-out: ITC Kd) is 42 ± 3.4 µM. In [5] (setting [10]), the “ITC n (fitted curve of Figure 4)” value came out at 2.6, the “ITC ΔH (fitted curve of Figure 4)” value is -7.43 kcal/mol and the “ITC ΔS (fitted curve of Figure 4)” value is listed as 20.9 J/mol•K. Moreover, the Kd in data set [5] (single titration shown in Fig. 4, 100 μM C0-C2, read-out: ITC Kd (fitted curve of Figure 4)) is 35.1 µM. Further, on F-actin, the “ITC interaction with F-actin (in words)” value is recorded as “not apparent; also recorded: no interaction”. The “TR-FRET measured binding of C0-C2 to actin, effect of compound” value in [6] is “almost completely eliminated”. For the same compound, the “absorbance in the visible range (light scatter, C0-C2 aggregation)” value at C0-C2 is “did not detect absorption”. Moreover, the “TR-F+PKA n” value in [7] (3 μM phosphorylated C0-C2, n not defined in table) was found to be 1.8. The EC50 in data set [7] (read-out: TR-F+PKA EC50, 1 μM AF568-actin, 3 μM PKA-phosphorylated C0-C2, mean ± SE) came to 17.5 ± 11.8 µM.

For the compound `O=C(NCCO)c1cccc(-c2cc(Nc3ccc(OC(F)(F)F)cc3)ncn2)c1` [GNF-5], the “effect on actin anisotropy (TPA), control compound” value at ErIA-actin is “does bind actin and changes its anisotropy”.

For the origin of these results see PMC8233204, “Cardiac myosin-binding protein C interaction with actin is inhibited by compounds identified in a high-throughput fluorescence lifetime screen” (The Journal of Biological Chemistry, 2021).
